Test system: two-way human mixed lymphocyte response (human PBL)
Experiment: Two-way human mixed lymphocyte reaction (MLR), 3H-thymidine incorporation
Assay type: cell-based
Procedure: Preparation of human peripheral blood leukocyte (PBL) suspensions. Human peripheral blood suspensions were prepared from Leukotrap blood filters as follows: Leukotrap filters containing processed leukocytes from random, unrelated blood donors were obtained from the Indian River Blood Bank (Vero Beach, Fla.). Buffy-coat blood cell suspensions were recovered by reverse-flow phosphate-buffered saline purging and centrifugation for 15 minutes at 475× g. Buffy coats were removed, and 5 ml of the suspension was layered onto 5 ml of Histopaque gradient material. The Histopaque gradients were centrifuged at 475× g for 30 minutes. Lymphocytes were removed from the Histopaque-medium interface, and washed twice with 10 ml of PBS (Dulbecco's phosphate-buffered saline without CaCl2 and MgCl2.6H2 O). The final cell pellet was resuspended in TCM, and the cell concentration adjusted to 2×10^6 cells/ml.
Two way mixed lymphocyte reaction (MLR). The immunosuppressive properties of mycalamide A were evaluated using the two-way MLR, utilizing murine splenocytes and human PBL. For the murine MLR, splenocytes from C57Bl/6J and BALB/c mice were prepared as described above, and a volume of […] of each cell suspension was added together to test and control wells of microtiter plates. Wells containing 0.20 ml of each cell suspension alone served as controls.
Dilutions of the drug to be tested were prepared in absolute EtOH and further diluted to the appropriate concentration in TCM and added directly to the wells containing splenocyte combinations. Additional solvent (EtOH) control wells were also prepared by adding the equivalent percentage of EtOH to each culture well. Plates were incubated at 37° C. in a 5% CO2 humidified atmosphere for 88 hours. Following the incubation, 1.0 μCi of ^3 H-thymidine was added to each well, and the plates were returned to the incubator for 5 hours. The contents of each well were harvested onto glass-fiber filter strips, and the incorporation of ^3 H-thymidine was determined by a liquid scintillation counter. Similar conditions were utilized for MLR cultures using human peripheral blood lymphocytes prepared from unrelated donors as described above, with the exception that the initial incubation and subsequent ^3 H-thymidine pulse times were different (114 hours for initial incubation followed by a 6-hour incubation with ^3 H-thymidine). Plates were harvested in a similar manner, and ^3 H-thymidine incorporation determined as described above.

`C=C1CC(OC)(C(O)C(=O)NC2OCOC3C2OC(CC(O)CO)C(C)(C)C3OC)OC(C)C1C` (centres unmarked) [Mycalamide A, mycalamide A] showed an activity at 0.5 µg/mL (120 h, human, 5.0 × 10^-1 μg/ml, read-out: % of Positive Control MLR) of 0%, an activity at 0.05 µg/mL (120 h, human, 5.0 × 10^-2 μg/ml, read-out: % of Positive Control MLR) of 0% and an activity at 0.005 µg/mL (120 h, human, 5.0 × 10^-3 μg/ml, read-out: % of Positive Control MLR) of 0%. For the same compound, the activity at 0.0005 µg/mL (120 h, human, 5.0 × 10^-4 μg/ml, read-out: % of Positive Control MLR) was 40%, the activity at 50 pg/mL (120 h, human, 5.0 × 10^-5 μg/ml, read-out: % of Positive Control MLR) was 43% and the activity at 5 pg/mL (120 h, human, 5.0 × 10^-6 μg/ml, read-out: % of Positive Control MLR) was 71%. The activity at 500 fg/mL (120 h, human, 5.0 × 10^-7 μg/ml, read-out: % of Positive Control MLR) was 81% and the IC50 (Homo sapiens) was 0.017 ng/mL.
